Laboratory results taken from patent publication US20230240290A1, “USE OF (Z)-3-HEXENYL ESTERS AND METHOD FOR PROTECTING PLANTS AGAINST PESTS” (UNIVERSITAT POLITÈCNICA DE VALÈNCIA, priority 2020, published 2023).
Entries after “also recorded” stand apart in the source; their conditions may differ.

How the values were obtained:
Tamarixia radiata = assay: Y-tube olfactometer preference, exposed vs intact Carrizo citrange plants; type: in vivo; settings: plants exposed 24 h vs intact plants
Procedure: To assess the preference of D. citri females and the parasitoid T. radiata to Carrizo citrange plants that were previously exposed for 24 h to (Z)-3-HP in relation to intact plants, a Y-shaped olfactometer was used in the same way as that described in Example 1, and the plants were exposed to both volatiles as described above with the use of pieces of filter paper. A total of 40 valid replicates were recorded for each species for each pair of odor sources. Each individual was tested only once. […] After recording five responses, the Y-tube was rinsed with soapy water, cleaned with acetone, and allowed to dry for 5 minutes. The odor sources were later switched between the left and right side arms to minimize any spatial effect on choice. The two types of plants (intact and induced) were used only once to assess the response of 10 females and were then replaced with new plants. The Y-tube experiment was performed under the following environmental conditions: 25±1° C. and 60±10% RH.
The D. citri adults were obtained from a colony established at SWFREC (University of Florida), initially originating from citrus fruits located in their experimental plots. The parasitoids were collected in these experimental fields. Newly emerged adult females less than 5 days old were used in all the assays.

Tuta absoluta = assay: Laying of Tuta absoluta on exposed tomato plants; type: in vivo; settings: T. absoluta, 72 hours; permanent exposure
Procedure: It was also studied whether the defensive activation induced by exposure to (Z)-3-hexenyl propanoate could influence the development of two highly important phytophages in tomato cultivation, the red spider, T. urticae, and the lepidoptera T. absoluta. The individuals used in these experiments came from the captive breeding of these species that are kept in the IVIA described above. The exposure time of the plant to the volatile was tested on both phytophages in two different ways, one where the plant was only exposed to the volatile for 24 hours and then the herbivore to be assayed was immediately released, and the other where the volatile was permanently exposed throughout the experiment.
For this purpose, two climatic chambers were used under the same environmental conditions [25±2° C., 65±5% HR and 14:10 h (L:D) photoperiod], wherein, to avoid interference between the volatiles, one was assigned to the (Z)-3-hexenyl propanoate treatments and one to the control treatment. […]
Two consecutive experiments were performed to assess the effect of exposure to both volatiles on T. absoluta. […] The laying of T. absoluta was assessed in 8 tomato plants (cv. Moneymaker) per treatment. […] After this time, T. absoluta adults were removed, and the number of eggs was counted.

[1] = system: PR1 (marker gene for the SA signaling pathway); assay: Field (commercial greenhouse) assay, transcriptional response of PR1 in tomato plants; type: in vivo, tomato cv Raf; settings: LD dispenser every 20 m2, at 30 and 60 days
Procedure: To know the behavior of the dispensers loaded with (Z)-3-hexenyl propionate under real cultivation conditions, four commercial greenhouses for tomato cv Raf located in Xilxes (Castellón province), with a history of problems with T. absoluta contamination at the end of winter, were selected. An experimental design of randomized blocks was carried out where each greenhouse was considered a block with two treatments per block and 4 repetitions per treatment. […]
Twenty plants randomly chosen by repetition were sampled weekly for 11 weeks, beginning 30 Jan. […] First, the number of leaflets infested by T. absoluta per plant was counted. Then the number of N. tenuis (adults and nymphs) throughout the apical third of each plant (leaves, flowers and shoots) was counted. Following the methodology described above, 6 samples were taken from the apical part of each plant per repetition, and these samples were immediately introduced into liquid nitrogen to quantify the expression of the PR1 and PIN2 genes (described in Example 1 and Example 2). The expression of these genes was quantified one day before, 4, and 8 weeks after hanging the dispensers in the greenhouses.

In the case of `CC/C=C\CCOC(=O)CC` [(Z)-3-hexenyl propanoate], the “Response of Tamarixia radiata females to exposed citrus plants” value (Tamarixia radiata) is reported as “highly attractive; also recorded: more attractive”, the “Reduction in laying compared to the control” value (Tuta absoluta) is reported as 67.2±15.0% and the “Expression of PR1 compared to plants in the control zone” value [1] is reported as “significantly higher”.
